Reference: the supplement of paper PMC10307832

Assays:
Test in all cases: relative viability (nuclei count vs DMSO), 5 days (fraction); higher = more cells survive
[1] = tested on: NCI-H1623
Method in brief: (§1)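 Each reported value is a median over duplicate plates. It expresses relative viability: treated-well nuclei count divided by vehicle-well nuclei count. Lung cancer cell lines in 1536-well plates were dosed by pin tool a day after seeding, alone with one drug or with a fixed anchor-drug dose plus five library-drug doses (not always all listed) in √10 steps, and nuclei were counted after 5 days.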

[2] = tested on: NCI-H520
Method in brief: as §1

[3] = tested on: LK-2
Method in brief: as §1

[4] = tested on: NCI-H522
Method in brief: as §1

[5] = tested on: NCI-H1355
Method in brief: as §1

[6] = tested on: COR-L 105
Method in brief: as §1

[7] = tested on: LCLC-103H
Method in brief: as §1

COc1nc(C)cnc1NS(=O)(=O)c1cccnc1-c1ccc(-c2nnco2)cc1 [Zibotentan] + CCNC(=O)c1noc(-c2cc(C(C)C)c(O)cc2O)c1-c1ccc(CN2CCOCC2)cc1 [Luminespib] (partner 0.01 µM)
relative viability ([1]; first compound 0.08 µM): 0.427 | relative viability ([1]; first compound 0.8 µM): 0.445 | relative viability ([1]; first compound 2.53 µM): 0.486 | relative viability ([2]; first compound 0.08 µM): 0.206 | relative viability ([2]; first compound 0.253 µM): 0.213 | relative viability ([2]; first compound 0.8 µM): 0.242 | relative viability ([2]; first compound 2.53 µM): 0.164 | relative viability ([3]; first compound 0.08 µM): 0.216 | relative viability ([3]; first compound 0.253 µM): 0.208 | relative viability ([3]; first compound 0.8 µM): 0.168 | relative viability ([3]; first compound 2.53 µM): 0.154 | relative viability ([4]; first compound 0.08 µM): 1.26 | relative viability ([4]; first compound 0.253 µM): 1.02 | relative viability ([4]; first compound 0.8 µM): 1.13 | relative viability ([4]; first compound 2.53 µM): 1.09 | relative viability ([5]; first compound 0.08 µM): 0.738 | relative viability ([5]; first compound 0.253 µM): 0.719 | relative viability ([5]; first compound 0.8 µM): 0.773 | relative viability ([5]; first compound 2.53 µM): 0.75 | relative viability ([6]; first compound 0.08 µM): 0.938 | relative viability ([6]; first compound 0.253 µM): 0.693 | relative viability ([6]; first compound 0.8 µM): 0.891 | relative viability ([6]; first compound 2.53 µM): 0.74 | relative viability ([7]; first compound 0.08 µM): 0.913 | relative viability ([7]; first compound 0.253 µM): 0.682 | relative viability ([7]; first compound 0.8 µM): 0.982 | relative viability ([7]; first compound 2.53 µM): 0.927

COc1nc(C)cnc1NS(=O)(=O)c1cccnc1-c1ccc(-c2nnco2)cc1 [Zibotentan] + Cc1nc(Nc2ncc(C(=O)Nc3c(C)cccc3Cl)s2)cc(N2CCN(CCO)CC2)n1 [Dasatinib] (partner 0.075 µM)
relative viability ([1]; first compound 0.08 µM): 0.533 | relative viability ([1]; first compound 0.8 µM): 0.567 | relative viability ([1]; first compound 2.53 µM): 0.507 | relative viability ([2]; first compound 0.08 µM): 0.252 | relative viability ([2]; first compound 0.253 µM): 0.222 | relative viability ([2]; first compound 0.8 µM): 0.224 | relative viability ([2]; first compound 2.53 µM): 0.237 | relative viability ([3]; first compound 0.08 µM): 0.293 | relative viability ([3]; first compound 0.253 µM): 0.221 | relative viability ([3]; first compound 0.8 µM): 0.275 | relative viability ([3]; first compound 2.53 µM): 0.318 | relative viability ([4]; first compound 0.08 µM): 0.479 | relative viability ([4]; first compound 0.253 µM): 0.839 | relative viability ([4]; first compound 0.8 µM): 0.974 | relative viability ([4]; first compound 2.53 µM): 0.964 | relative viability ([5]; first compound 0.08 µM): 0.691 | relative viability ([5]; first compound 0.253 µM): 0.743 | relative viability ([5]; first compound 0.8 µM): 0.718 | relative viability ([5]; first compound 2.53 µM): 0.832 | relative viability ([6]; first compound 0.08 µM): 0.32 | relative viability ([6]; first compound 0.253 µM): 0.353 | relative viability ([6]; first compound 0.8 µM): 0.381 | relative viability ([6]; first compound 2.53 µM): 0.405 | relative viability ([7]; first compound 0.08 µM): 0.47 | relative viability ([7]; first compound 0.253 µM): 0.562 | relative viability ([7]; first compound 0.8 µM): 0.451 | relative viability ([7]; first compound 2.53 µM): 0.531

CCN(CC)CCCCNc1ncc2cc(-c3cc(OC)cc(OC)c3)c(NC(=O)NC(C)(C)C)nc2n1 + CCNC(=O)c1noc(-c2cc(C(C)C)c(O)cc2O)c1-c1ccc(CN2CCOCC2)cc1 [Luminespib] (partner 0.01 µM)
relative viability ([1]; first compound 0.01 µM): 0.605 | relative viability ([1]; first compound 0.03162 µM): 0.54 | relative viability ([1]; first compound 0.1 µM): 0.443 | relative viability ([1]; first compound 0.3162 µM): 0.607 | relative viability ([1]; first compound 1 µM): 0.722 | relative viability ([2]; first compound 0.01 µM): 0.203 | relative viability ([2]; first compound 0.03162 µM): 0.228 | relative viability ([2]; first compound 0.1 µM): 0.229 | relative viability ([2]; first compound 0.3162 µM): 0.289 | relative viability ([2]; first compound 1 µM): 0.207 | relative viability ([3]; first compound 0.01 µM): 0.153 | relative viability ([3]; first compound 0.03162 µM): 0.207 | relative viability ([3]; first compound 0.1 µM): 0.202 | relative viability ([3]; first compound 0.3162 µM): 0.183 | relative viability ([3]; first compound 1 µM): 0.184 | relative viability ([4]; first compound 0.01 µM): 1.14 | relative viability ([4]; first compound 0.03162 µM): 1.08 | relative viability ([4]; first compound 0.1 µM): 1.15 | relative viability ([4]; first compound 0.3162 µM): 1.13 | relative viability ([4]; first compound 1 µM): 1.11 | relative viability ([5]; first compound 0.01 µM): 0.795 | relative viability ([5]; first compound 0.03162 µM): 0.824 | relative viability ([5]; first compound 0.1 µM): 0.704 | relative viability ([5]; first compound 0.3162 µM): 0.738 | relative viability ([5]; first compound 1 µM): 0.649 | relative viability ([6]; first compound 0.01 µM): 0.909 | relative viability ([6]; first compound 0.03162 µM): 0.698 | relative viability ([6]; first compound 0.1 µM): 0.73 | relative viability ([6]; first compound 0.3162 µM): 0.795 | relative viability ([6]; first compound 1 µM): 0.68 | relative viability ([7]; first compound 0.01 µM): 1.07 | relative viability ([7]; first compound 0.03162 µM): 1.06 | relative viability ([7]; first compound 0.1 µM): 0.924 | relative viability ([7]; first compound 0.3162 µM): 1.01 | relative viability ([7]; first compound 1 µM): 0.739
